Measured values taken from patent US20060281719A1, “Oestrogen-17-sulphamates as inhibitors of steroid sulphatase” (priority 2000, published 2006).
“And” between values parts separate entries of the source, which are not always exact repeats. Equal entries are not always repeated. Where two headings read alike, the source gives them in different places.

Key:
[1] = Plate assay % inhibition; assay type: cell-based; details: -ve % means stimulation
[2] = biological target: T1, oestrone sulphatase (E1-STS) (Homo sapiens, UniProt P08842); assay: Inhibition of steroid sulphatase activity in placental microsomes; assay type: biochemical; set-up: from tissue; host or cells: human term placenta (microsomal preparation); details: for inhibition at 0.01 µM / inhibition at 1 µM: read-out: Placental Microcsomes % inhibition
T1 sequence (P08842 22-583): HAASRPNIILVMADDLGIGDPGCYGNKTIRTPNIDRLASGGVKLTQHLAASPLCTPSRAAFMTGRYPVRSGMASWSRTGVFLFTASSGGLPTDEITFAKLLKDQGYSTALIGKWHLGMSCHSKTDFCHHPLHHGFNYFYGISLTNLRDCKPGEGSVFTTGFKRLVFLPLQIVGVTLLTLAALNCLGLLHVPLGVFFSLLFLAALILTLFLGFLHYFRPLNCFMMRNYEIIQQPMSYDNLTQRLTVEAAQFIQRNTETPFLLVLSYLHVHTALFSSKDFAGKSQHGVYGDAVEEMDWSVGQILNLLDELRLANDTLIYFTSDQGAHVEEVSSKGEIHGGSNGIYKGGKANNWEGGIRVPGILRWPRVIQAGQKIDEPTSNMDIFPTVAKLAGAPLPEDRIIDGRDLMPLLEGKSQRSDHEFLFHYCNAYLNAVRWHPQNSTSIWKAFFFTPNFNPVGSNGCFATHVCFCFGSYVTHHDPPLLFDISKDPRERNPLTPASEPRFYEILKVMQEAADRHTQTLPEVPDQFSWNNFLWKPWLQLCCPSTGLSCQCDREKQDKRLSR

[3] = tested on: tubulin; assay: Colchicine Displacement Assay (tubulin binding); set-up: concentration or dose not given beside the values
[4] = biological target: T1, oestrone sulphatase (E1-STS); assay: Inhibition of steroid sulphatase (E1-STS) activity in intact MCF-7 breast cancer cells; assay type: cell-based
[5] = tested on: MCF-7 breast cancer cells; assay: Growth inhibition of MCF-7 breast cancer cells; assay type: cell-based, human

With CN(C)S(=O)(=O)O[C@@H]1CCC2C3CCc4cc(OCc5ccccc5)ccc4C3CC[C@@]21C (some centres unmarked) the melting point was 82 to 86 °C (dec.).
CC1=C2CCC3c4ccc(OS(N)(=O)=O)cc4CCC3C2CC1 (centres unmarked) gave a melting point of 172 to 176 °C.
With C[C@]12CCC3c4ccc(OCc5ccccc5)cc4CCC3C1CC[C@@H]2OS(N)(=O)=O (some centres unmarked) the melting point was 108 to 109 °C.
Compound C[C@]12CCC3c4ccc(OCc5ccccc5)cc4CCC3C1CC[C@H]2OS(N)(=O)=O (some centres unmarked) has a melting point of 91 to 93 °C.
In the case of C[C@]12CCC3c4ccc(OCc5ccccc5)cc4CCC3C1CC[C@H]2OS(=O)(=O)N(Cc1ccccc1)Cc1ccccc1 (some centres unmarked), the melting point is reported as 115 to 116 °C.
CN(C)S(=O)(=O)O[C@H]1CCC2C3CCc4cc(OCc5ccccc5)ccc4C3CC[C@@]21C (some centres unmarked) showed a melting point of 117 to 121 °C.
CC1=C2CCC3c4ccc(OS(N)(=O)=O)cc4CCC3C2CC1 (centres unmarked) [BLE00086] showed an inhibition at 0.1 µM ([1]; 0.1 μM) of 8%, an inhibition at 1 µM ([1]; 1 μM) of 3% and an inhibition at 10 µM [1] of 14%.
In the case of COc1cc2c(cc1O)CCC1C2CC[C@@]2(C)C1CC[C@@]2(O)Cc1ccc(C(C)(C)C)cc1 (some centres unmarked) [BLE01008], the “Plate assay % inhibition” value ([1]; 0.1 μM) is reported as −12% and the “Plate assay % inhibition” value ([1]; 1 μM) is reported as −15%.
For COc1cc2c(cc1O)CCC1C2CC[C@@]2(C)C1CC[C@@]2(O)Cc1ccccc1 (some centres unmarked) [BLE01014], the “Plate assay % inhibition” value ([1]; 0.1 μM) was −14% and the “Plate assay % inhibition” value ([1]; 1 μM) was −14%.
For COc1cc2c(cc1OS(N)(=O)=O)CCC1C2CCC2(C)C1CCC2(O)Cc1ccc(C(C)(C)C)cc1 (centres unmarked) [BLE01016], the inhibition at 0.1 µM ([1]; 0.1 μM) was -14%, the inhibition at 1 µM ([1]; 1 μM) was -10% and the inhibition at 10 µM [1] was -3%.
COc1cc2c(cc1OS(N)(=O)=O)CCC1C2CCC2(C)C1CCC2(O)Cc1ccccc1 (centres unmarked) [BLE01018] showed an inhibition at 0.1 µM ([1]; 0.1 μM) of -19% and an inhibition at 1 µM ([1]; 1 μM) of -12%.
CC12CCC3c4ccc(OS(N)(=O)=O)cc4CCC3C1CCC2OS(N)(=O)=O (centres unmarked) [BLE99031B] showed an inhibition at 0.1 µM ([1]; 0.1 μM) of 7%, an inhibition at 1 µM ([1]; 1 μM) of 12% and an inhibition at 10 µM [1] of 32%.
For CC(=O)NS(=O)(=O)O[C@H]1CCC2C3CCc4cc(O)ccc4C3CC[C@@]21C (stereo partly drawn) [BLE99058, 3-Hydroxyestra-1,3,5(10)-trien-17β-O-(N-acetyl)sulfamate], the melting point was 130 to 134 °C (dec.), the inhibition at 0.01 µM ([2]; 10 nM, -ve % means stimulation) was 0.9% and the inhibition at 1 µM ([2]; 1 μM, -ve % means stimulation) was 7.8%.
In the case of C[C@]12CCC3c4ccc(O)cc4CCC3C1CC[C@@H]2OS(=O)(=O)N(Cc1ccccc1)Cc1ccccc1 (stereo partly drawn) [BLE99060, 3-Hydroxyestra-1,3,5(10)-trien-17β-O—(N,N-dibenzyl)sulfamate], the melting point is reported as 60 to 63 °C, the inhibition at 0.01 µM ([2]; 10 nM, -ve % means stimulation) is reported as -3.2% and the inhibition at 1 µM ([2]; 1 μM, -ve % means stimulation) is reported as 1.36%.
With C[C@]12CCC3c4ccc(OS(N)(=O)=O)cc4CCC3C1CC[C@@H]2OS(=O)(=O)N(Cc1ccccc1)Cc1ccccc1 (stereo partly drawn) [BLE99063, 3-O-Sulfamoyl-estra-1,3,5(10)-trien-17β-O—(N,N-dibenzyl)sulfamate] the melting point was 60 to 64 °C and 58 to 62 °C, the inhibition at 0.01 µM ([2]; 10 nM, -ve % means stimulation) was -1.9% and the inhibition at 1 µM ([2]; 1 μM, -ve % means stimulation) was 38.2%.
In the case of CC(=O)NS(=O)(=O)O[C@H]1CCC2C3CCc4cc(OS(N)(=O)=O)ccc4C3CC[C@@]21C (stereo partly drawn) [BLE99065, 3-O-Sulfamoyl-estra-1,3,5(10)-trien-17β-O-(N-acetyl)sulfamate], the inhibition at 0.1 µM ([1]; 0.1 μM) is reported as 7%, the inhibition at 1 µM ([1]; 1 μM) is reported as 5% and the inhibition at 10 µM [1] is reported as 23%. The melting point was 76 to 80 °C (dec.), the inhibition at 0.01 µM ([2]; 10 nM, -ve % means stimulation) was 9.8% and the inhibition at 1 µM ([2]; 1 μM, -ve % means stimulation) was 91%.
For C[C@]12CCC3c4ccc(O)cc4CCC3C1CC[C@H]2OS(=O)(=O)N(Cc1ccccc1)Cc1ccccc1 (stereo partly drawn) [BLE99066, 3-Hydroxyestra-1,3,5(10)-trien-17α-O—(N,N-dibenzyl)sulfamate], the inhibition at 0.1 µM ([1]; 0.1 μM) was 11%, the inhibition at 1 µM ([1]; 1 μM) was 5% and the inhibition at 10 µM [1] was 27%. The melting point was 57 to 60 °C, the inhibition at 0.01 µM ([2]; 10 nM, -ve % means stimulation) was 1.4% and the inhibition at 1 µM ([2]; 1 μM, -ve % means stimulation) was 4.5%.
Compound CN(C)S(=O)(=O)O[C@H]1CCC2C3CCc4cc(O)ccc4C3CC[C@@]21C (stereo partly drawn) [BLE99067, 3-Hydroxyestra-1,3,5(10)-trien-17β-O—(N,N-dimethyl)sulfamate] has an inhibition at 0.1 µM ([1]; 0.1 μM) of -5%, an inhibition at 1 µM ([1]; 1 μM) of -1% and an inhibition at 10 µM [1] of 50%. It also gave a melting point of 170 to 173 °C, an inhibition at 0.01 µM ([2]; 10 nM, -ve % means stimulation) of -0.1% and an inhibition at 1 µM ([2]; 1 μM, -ve % means stimulation) of 8.7%.
In the case of C[C@]12CCC3c4ccc(OS(N)(=O)=O)cc4CCC3C1CC[C@H]2OS(=O)(=O)N(Cc1ccccc1)Cc1ccccc1 (stereo partly drawn) [BLE99068, 3-O-Sulfamoyl-estra-1,3,5(10)-trien-17α-O—(N,N-dibenzyl)sulfamate], the inhibition at 0.1 µM ([1]; 0.1 μM) is reported as -18%, the inhibition at 1 µM ([1]; 1 μM) is reported as -1% and the inhibition at 10 µM [1] is reported as 19%. It also gave an inhibition at 0.01 µM ([2]; 10 nM, -ve % means stimulation) of 4.9% and an inhibition at 1 µM ([2]; 1 μM, -ve % means stimulation) of 58.2%.
For CN(C)S(=O)(=O)O[C@H]1CC[C@H]2[C@@H]3CCc4cc(OS(N)(=O)=O)ccc4[C@H]3CC[C@]12C [BLE99069, 3-O-Sulfamoyl-estra-1,3,5(10)-trien-17β-O—(N,N-dimethyl)sulfamate], the “Plate assay % inhibition” value ([1]; 0.1 μM) was 3%, the “Plate assay % inhibition” value ([1]; 1 μM) was 10% and the “Placental Microcsomes % inhibition” value ([2]; 10 nM, -ve % means stimulation) was 30.3^1%. For the same compound, the “Placental Microcsomes % inhibition” value ([2]; 1 μM, -ve % means stimulation) was 96.3^1%.
CCCCCN(CCCCC)S(=O)(=O)O[C@H]1CCC2C3CCc4cc(O)ccc4C3CC[C@@]21C (stereo partly drawn) [BLE99073, 3-Hydroxyestra-1,3,5(10)-trien-17β-O—(N,N-dipentyl)sulfamate] gave a melting point of 93 to 96 °C, an inhibition at 0.01 µM [2] of 1.2% and an inhibition at 1 µM [2] of -11.8%.
Work on CCCCCN(CCCCC)S(=O)(=O)O[C@H]1CCC2C3CCc4cc(OS(N)(=O)=O)ccc4C3CC[C@@]21C (stereo partly drawn) [BLE99074, 3-O-Sulfamoyl-estra-1,3,5(10)-trien-17β-O—(N,N-dipentyl)sulfamate] yielded a melting point of 105 to 107 °C and an inhibition at 1 µM ([2]; 1 μM, -ve % means stimulation) of 23.7%.
For CCc1cc2c(cc1O)CC[C@@H]1[C@@H]2CC[C@]2(C)[C@@H](O)CC[C@@H]12 [Compound 2-EtE2], the “Colchicine Displacement Assay (%)” value [3] was 6%.
With COc1cc2c(cc1O)CC[C@@H]1[C@@H]2CC[C@]2(C)[C@@H](O)CC[C@@H]12 [Compound 2-MeOE2, 2-methoxyoestradiol] the “Colchicine Displacement Assay (%)” value [3] was 41%.
In the case of O=C1c2ccccc2C(=O)c2c1oc1cc(O)ccc21 [Compound 12, 3-Hydroxybenzo[b]naphtho[2,3-d]furan-6,11-dione], the inhibition at 10 µM ([4]; MCF7, 10 μM) is reported as 3%, the inhibition at 0.1 µM ([5]; Homo sapiens, MCF7, 0.1 μM, read-out: percentage growth inhibition of MCF-7 breast cancer cells) is reported as 12% and the inhibition at 1 µM ([5]; Homo sapiens, MCF7, 1 μM, read-out: percentage growth inhibition of MCF-7 breast cancer cells) is reported as 20%. The inhibition at 10 µM ([5]; Homo sapiens, MCF7, 10 μM, read-out: percentage growth inhibition of MCF-7 breast cancer cells) was 56% and the melting point was > 310 °C.
With NS(=O)(=O)Oc1ccc2c3c(oc2c1)C(=O)c1ccccc1C3=O [Compound 13, Benzo[b]naphtho[2,3-d]furan-6,11-dione 3-O-sulphamate] the “% Inhibition of E1-STS activity in MCF-7 cells” value (from here on “% Inhibition of E1-STS activity”) ([4]; 0.1 μM) was 46.6 ± 4.5%, the “% Inhibition of E1-STS activity” value ([4]; 1 μM) was 93.9 ± 0.8% and the “% Inhibition of E1-STS activity” value ([4]; 10 μM) was 99% and 98.6 ± 0.3%. The “effect on MCF-7 cells (toxicity)” value [5] was “kills the MCF-7 cells”, the “percentage growth inhibition of MCF-7 breast cancer cells” value (from here on “percentage growth inhibition”) ([5]; 0.1 μM) was “inactive” and the “percentage growth inhibition” value ([5]; 1 μM) was 41%. For the same compound, the “percentage growth inhibition” value ([5]; 10 μM) was 44%.
With NS(=O)(=O)Oc1ccc(C(O)(c2ccc(OS(N)(=O)=O)cc2)C2CCCCC2)cc1 [Compound 25, 1-Cyclohexyl-1,1-di-(4-sulphamoyloxyphenyl)methanol] the inhibition at 0.1 µM ([4]; MCF7, 0.1 μM) was < 10%, the inhibition at 1 µM ([4]; MCF7, 1 μM) was 27.4 ± 0.8% and the inhibition at 10 µM ([4]; MCF7, 10 μM) was 75.1 ± 2.8%. For the same compound, the melting point was 213 to 215 °C (dec.).
